Source: patent US20230278972A1, “SUBSTITUTED HALOALKYL SULFONANILIDE HERBICIDES” (FMC Corporation, priority 2020, published 2023)

Columns and labels:
Assay type in all cases: in vivo
[1] = test system: Foxtail, Giant (giant foxtail, Setaria faberi); assay: Test A1 preemergence, Foxtail, Giant
Summary of the method: (§1)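 Pre: seeds in loam/sand blend, directed soil spray. Post: potted plants, same soil, 2–10 cm, 1–2 leaf stage. Chemicals in non-phytotoxic solvent + surfactant for both.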

[2] = test system: ragweed (common ragweed, Ambrosia artemisiifolia); assay: Test A1 postemergence, ragweed; settings: for Plant response rating, Ragweed: Postemergence; for Ragweed plant response rating: postemergence
Summary of the method: (§2)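 Herbicidal response was scored on plants treated either preemergence, by directed spray onto soil of a loam–sand blend after sowing, or postemergence on potted plants at the one- to two-leaf stage, 2–10 cm high. Test chemicals were carried in a non-phytotoxic solvent mix with surfactant.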

soybean (Glycine max) = assay: Test A1 preemergence, soybean
Summary of the method: as §1

[3] = test system: Ryegrass, Italian (Italian ryegrass, Lolium multiflorum); assay: Test A1 preemergence, Ryegrass, Italian
Summary of the method: as §1

corn (Zea mays) [4] = assay: Test A1 postemergence, corn; settings: Postemergence
Summary of the method: as §1

[5] = test system: galium (catchweed bedstraw, Galium aparine); assay: Test A1 postemergence, galium; settings: for Plant response rating, Galium: Postemergence; for Galium plant response rating: postemergence
Summary of the method: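 Seeds were first planted into a blend of loam soil and sand and given a preemergence directed soil spray. In parallel, pots of the same soil were sown for postemergence application once plants reached 2 to 10 cm and the one- to two-leaf stage. Both used surfactant-containing non-phytotoxic solvent formulations.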

rice (Oryza sativa) = assay: Test B1 flooded paddy test, rice; settings: 250 g ai/ha, Flood, applied to paddy water, 2-leaf stage, visually evaluated after 10 to 14 days
From the text: (§3) A dash (-) response means no test result.

corn (Zea mays) [6] = assay: Test A1 preemergence, corn
Summary of the method: as §2

[7] = test system: ducksalad (Heteranthera limosa); assay: Test B1 flooded paddy test, ducksalad; settings: 250 g ai/ha, Flood, applied to paddy water, 2-leaf stage, visually evaluated after 10 to 14 days
From the text: as §3

[8] = 31 g ai/ha, 0 to 100 scale (0 no effect, 100 complete control)
[9] = 125 g ai/ha, 0 to 100 scale, 0 no effect, 100 complete control
[10] = 31 g ai/ha, 0 to 100 scale (0 no effect, 100 complete control), 10 days

Row | SMILES | Plant response rating, Foxtail, Giant [1, 8] | Plant response rating, Foxtail, Giant [1, 9] | Plant response rating, Ragweed [2, 10] | Plant response rating, Ragweed ([2]; 125 g ai/ha, 0 to 100 scale) | Plant response rating, Soybean (soybean (Glycine max); [8]) | Plant response rating, Soybean (soybean (Glycine max); [9]) | Plant response rating, Ryegrass, Italian [3, 8] | Plant response rating, Ryegrass, Italian [3, 9] | Plant response rating, Corn (corn (Zea mays) [4]; [10]) | Plant response rating, Corn (corn (Zea mays) [4]; 125 g ai/ha, 0 to 100 scale) | Plant response rating, Galium [5, 10] | Plant response rating, Galium ([5]; 125 g ai/ha, 0 to 100 scale) | Plant response rating, Rice (0 to 100 scale, 0 is no effect, 100 is complete control) (rice (Oryza sativa)) | Plant response rating, Corn (corn (Zea mays) [6]; [8]) | Plant response rating, Corn (corn (Zea mays) [6]; [9]) | Plant response rating, Ducksalad (0 to 100 scale, 0 is no effect, 100 is complete control) [7] | Ragweed plant response rating [2, 8] | Galium plant response rating [5, 8]
1 | Cc1c(C(=O)N2CCC(Cl)CC2)cc(N(COC(=O)C(C)(C)C)S(=O)(=O)C(F)(F)F)c(C)c1C [Compound 359] | 0 | 90 | 30 | 70 | 0 | 30 | 0 | 0 | 0 | 0 | 50 | 80 | 15 | 0 | 0 | 25 | – | –
2 | Cc1c(C(=O)N2CCC(F)CC2)cc(N(COC(=O)C(C)(C)C)S(=O)(=O)C(F)(F)F)c(C)c1C [Compound 361] | 0 | 90 | 60 | 80 | 0 | 20 | 0 | 0 | 0 | 40 | 80 | 90 | 35 | 0 | 0 | 65 | – | –
3 | Cc1cc(C)c(N(COC(=O)C(C)(C)C)S(=O)(=O)C(F)(F)F)cc1C(=O)N1CCOCC1 [Compound 362] | 20 | 90 | 70 | 80 | 10 | 40 | 30 | 70 | 0 | 40 | 60 | 80 | 10 | 0 | 30 | 50 | – | –
4 | Cc1cc(C)c(N(COC(=O)C(C)(C)C)S(=O)(=O)C(F)(F)F)cc1C(=O)N1CCC(c2ccccc2)CC1 [Compound 364] | 0 | 0 | 0 | 0 | 0 | 0 | 0 | 0 | 0 | 0 | 0 | 30 | 0 | 0 | 0 | 0 | – | –
5 | CCOC(=O)N(c1cc(C(=O)N2CCC(c3ccccc3)CC2)c(C)cc1C)S(=O)(=O)C(F)(F)F [Compound 365] | 0 | 30 | 0 | 30 | 0 | 0 | 0 | 30 | 0 | 0 | 40 | 80 | 15 | 0 | 0 | 25 | – | –
6 | COC1CCN(C(=O)c2cc(NS(=O)(=O)C(F)(F)F)c(C)c(C)c2C)CC1 [Compound 367] | 90 | 100 | – | 70 | 0 | 90 | 0 | 20 | 0 | 70 | – | 100 | 15 | 10 | 90 | 80 | 50 | 50
7 | C#CCN(C)C(=O)c1cc(NS(=O)(=O)C(F)(F)F)c(C)c(C)c1C [Compound 368] | 90 | 100 | – | 80 | 90 | 100 | 50 | 100 | 40 | 90 | – | 100 | 0 | 0 | 90 | 60 | 50 | 70
8 | Cc1c(C(=O)N2CCC(C)CC2)cc(N(COC(=O)C(C)(C)C)S(=O)(=O)C(F)(F)F)c(C)c1C [Compound 369] | 0 | 20 | – | 80 | 0 | 30 | 40 | 40 | 0 | 50 | – | 80 | 20 | 0 | 0 | 65 | 20 | 60
9 | COC1CCN(C(=O)c2cc(N(COC(=O)C(C)(C)C)S(=O)(=O)C(F)(F)F)c(C)c(C)c2C)CC1 [Compound 370] | 10 | 90 | – | 70 | 0 | 0 | 30 | 30 | 0 | 90 | – | 100 | 25 | 0 | 0 | 70 | 50 | 90
10 | C#CCN(C)C(=O)c1cc(N(COC(=O)C(C)(C)C)S(=O)(=O)C(F)(F)F)c(C)c(C)c1C [Compound 371] | 10 | 100 | – | 70 | 0 | 60 | 0 | 80 | 60 | 90 | – | 100 | 10 | 0 | 90 | 55 | 40 | 70
11 | Cc1cc(C)c(C2=NOC3OCCCC23)cc1NS(=O)(=O)C(F)(F)F (stereo not shown) [Compound 372] | 90 | 100 | – | 80 | 0 | 50 | 40 | 90 | 20 | 50 | – | 80 | 10 | 0 | 10 | 65 | 40 | 60
12 | CCC1CC(c2cc(NS(=O)(=O)C(F)(F)F)c(C)cc2C)=NO1 (stereo not shown) [Compound 375] | 10 | 90 | – | 50 | 0 | 30 | 30 | 80 | 0 | 0 | – | 20 | 15 | 0 | 70 | 60 | 0 | 10
13 | CCC1CC(c2cc(N(COC(=O)C(C)(C)C)S(=O)(=O)C(F)(F)F)c(C)cc2C)=NO1 (stereo not shown) [Compound 376] | 0 | 30 | – | 40 | 0 | 0 | 0 | 30 | 0 | 0 | – | 30 | 20 | 0 | 0 | 70 | 20 | 10
